Results on six compounds are retold here after PMC7074199, “Phytochemicals of Minthostachys diffusa Epling and Their Health-Promoting Bioactivities” (Foods, 2020).

Like-named read-outs stand apart in the source and are kept apart here.

In one test the test system is Oncopeltus fasciatus. Details: method as in earlier work. Particulars: cited from earlier work.
Test [1] concerns the target T1, acetylcholinesterase (AChE) from Electrophorus electricus (Electrophorus electricus, UniProt O42275).
T1 construct: purchased Sigma-Aldrich (Milan, Italy) type VI-s
In words: biochemical. The source says: (§1) The two prevalent forms of cholinesterase in a healthy brain are acetylcholinesterase (AChE) and butyrylcholinesterase (BChE). Ellman’s reaction to analyse the AChE and BChE inhibition by the samples was used as described before.

Test [2] deals with T2, butyrylcholinesterase (BChE) from equine serum (Equus caballus, UniProt P81908).
T2 construct: butyrylcholinesterase (BChE) from equine serum (lyophilized powder); purchased Sigma-Aldrich (Milan, Italy); host or cells: equine serum
T2 sequence (P81908 whole entry): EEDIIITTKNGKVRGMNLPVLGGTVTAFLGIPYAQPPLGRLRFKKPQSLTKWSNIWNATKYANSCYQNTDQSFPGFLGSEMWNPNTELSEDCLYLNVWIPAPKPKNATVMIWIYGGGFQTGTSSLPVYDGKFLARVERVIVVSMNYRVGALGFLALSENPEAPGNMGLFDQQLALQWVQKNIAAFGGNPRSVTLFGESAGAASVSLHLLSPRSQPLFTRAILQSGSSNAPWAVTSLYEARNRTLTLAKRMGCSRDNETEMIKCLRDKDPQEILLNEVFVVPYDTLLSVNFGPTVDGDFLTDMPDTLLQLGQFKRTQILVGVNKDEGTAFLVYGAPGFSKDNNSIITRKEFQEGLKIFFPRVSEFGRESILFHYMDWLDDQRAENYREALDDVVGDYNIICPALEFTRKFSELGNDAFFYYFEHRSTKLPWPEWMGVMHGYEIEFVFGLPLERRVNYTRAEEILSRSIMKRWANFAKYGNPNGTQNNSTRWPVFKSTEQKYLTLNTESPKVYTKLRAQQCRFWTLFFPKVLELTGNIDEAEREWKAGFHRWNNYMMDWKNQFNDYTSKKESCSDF
Put plainly: biochemical.
Source text: as §1

In the next test the test system is BChE. Details: method as in doi:10.1016/j.foodchem.2010.10.050. The note with it: isolated from Micromeria cilicica; cited from earlier work.
The test system of a further test is AChE. Details: method as in doi:10.1016/j.foodchem.2010.10.050. The note with it: isolated from Micromeria cilicica; cited from earlier work.
Test [3] in a line: Nitric oxide radical scavenging assay. Particulars: concentration inhibiting 25% of radicals. The method, then: All M. diffusa samples were tested for their radical scavenging activity by four different in vitro chemical assays targeted against the biological super oxide anion (O2^−) and nitric oxide (NO) radicals, and the synthetic neutral DPPH and cationic ABTS^+ radicals.

For test [4], the system named is aged as well as scopolamine-induced amnesic rats. Details: method as in doi:10.31024/ajpp.2018.4.6.17. Particulars: cited from earlier work.
Setting [5] is: read-out: AChE IC50 (converted).

T1 sequence (O42275 24-633): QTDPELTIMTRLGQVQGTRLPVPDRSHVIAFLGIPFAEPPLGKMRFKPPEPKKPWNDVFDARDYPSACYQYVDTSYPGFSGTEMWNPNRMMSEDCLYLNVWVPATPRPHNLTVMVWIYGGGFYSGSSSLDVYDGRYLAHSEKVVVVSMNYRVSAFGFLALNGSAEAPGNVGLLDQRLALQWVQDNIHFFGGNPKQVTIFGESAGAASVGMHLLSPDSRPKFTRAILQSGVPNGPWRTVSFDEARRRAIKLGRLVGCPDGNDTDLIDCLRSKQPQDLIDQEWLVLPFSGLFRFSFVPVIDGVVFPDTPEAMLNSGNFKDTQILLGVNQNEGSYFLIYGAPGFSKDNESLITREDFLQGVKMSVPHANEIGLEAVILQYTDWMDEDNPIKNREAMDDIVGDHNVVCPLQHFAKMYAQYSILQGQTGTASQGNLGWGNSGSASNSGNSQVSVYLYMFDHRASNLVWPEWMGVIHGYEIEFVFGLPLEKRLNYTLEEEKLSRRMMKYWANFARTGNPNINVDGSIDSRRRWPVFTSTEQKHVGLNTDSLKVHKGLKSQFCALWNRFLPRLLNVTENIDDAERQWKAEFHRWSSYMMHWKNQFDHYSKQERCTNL

Take `CC(=O)O[C@H]1[C@H]2O[C@@]2(C)CC[C@H]1C(C)C` [(−)-(1S,2R,3R,4S)-1,2-epoxy-1-methyl-4-(1-methylethyl)-cyclohex-3-yl acetate]: in the test with Oncopeltus fasciatus, the insecticidal activity entry is given as “significant insecticidal activity”.

For `C[C@H]1[C@H](C)CC[C@]2(C(=O)O)CC[C@]3(C)C(=CC[C@@H]4[C@@]5(C)CC[C@H](O)C(C)(C)[C@@H]5CC[C@]43C)[C@H]12` [Ursolic acid], the IC50 (in general, the concentration at which inhibition is half-maximal) was 85.3 ± 5.85 µM in test [1] (setting [5]), 83.5 ± 0.94 µM in test [2] (read-out: BChE IC50), 41.1 µM in the test with BChE and 93.8 µM with AChE.

As for `O=C1O[C@H]([C@@H](O)CO)C(O)=C1O` [ascorbic acid], in test [3], the “NO IC25” value amounted to 4780 ± 90 µg/mL.

As to `C=C(C)[C@@H]1CC[C@]2(C(=O)O)CC[C@]3(C)[C@H](CC[C@@H]4[C@@]5(C)CC[C@H](O)C(C)(C)[C@@H]5CC[C@]43C)[C@@H]12` [betulinic acid], in test [1] (setting [5]), the IC50 is 19.7 µM. For the same compound, the “effect on learning and memory” value in test [4] was “improves learning and memory”.

Regarding `COc1ccc2c3c1O[C@H]1C[C@@H](O)C=C[C@@]31CCN(C)C2` [galantamine], in test [2] (read-out: BChE inhibition), the inhibition (usually the percentage by which the read-out fell short of the control) at 60 µg/mL stood at 67.3 ± 2.61%.

With `CC1(C)CC[C@]2(C(=O)O)CC[C@]3(C)C(=CC[C@@H]4[C@@]5(C)C[C@@H](O)[C@H](O)C(C)(C)[C@@H]5CC[C@]43C)[C@@H]2C1` [maslinic acid], the IC50 was 46.5 µM in test [1] and 10.6 µM in test [2].
